26 compounds from patent publication US20160287589A1, “SUBSTITUTED-IMIDAZOPYRIDAZINES” (BAYER PHARMA AKTIENGESELLSCHAFT, priority 2013, published 2016) can be followed below.

The target in experiment [1] is T1, MKNK1 (Homo sapiens, UniProt Q9BUB5, T385D).
T1 construct: GST (N); purchased Carna Biosciences 02-145; host or cells: insect cells (baculovirus expression system)
The experiment is described as follows: MKNK1 kinase assay (MKNK1 TR-FRET assay). It counts as biochemical. The following applies: 10 μM ATP, 15 min preincubation. Background: Time-resolved FRET reads energy transfer from a long-lived donor to a nearby acceptor.

Experiment [2] concerns the target T1, MKNK1. Briefly: MKNK1 kinase high ATP assay (TR-FRET-based). It counts as biochemical. Conditions: 2 mM ATP, 15 min preincubation. A digest of the protocol:
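TR-FRET read-out (anti-phospho-S6 Ser236 antibody, Eu/XL665) of biotin-peptide phosphorylation (0.06 μM) at high ATP (2 mM final). Enzyme was GST-MKNK1 full length, T344D, pre-bound to compound for 15 min before a 30 min reaction at 22 °C, pH 7.5. Inhibition scaled between no-inhibitor (0%) and no-enzyme (100%) wells.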

SMILES strings stand for the structures.

T1 sequence (Q9BUB5 1-424 isoform Q9BUB5-2 T344D): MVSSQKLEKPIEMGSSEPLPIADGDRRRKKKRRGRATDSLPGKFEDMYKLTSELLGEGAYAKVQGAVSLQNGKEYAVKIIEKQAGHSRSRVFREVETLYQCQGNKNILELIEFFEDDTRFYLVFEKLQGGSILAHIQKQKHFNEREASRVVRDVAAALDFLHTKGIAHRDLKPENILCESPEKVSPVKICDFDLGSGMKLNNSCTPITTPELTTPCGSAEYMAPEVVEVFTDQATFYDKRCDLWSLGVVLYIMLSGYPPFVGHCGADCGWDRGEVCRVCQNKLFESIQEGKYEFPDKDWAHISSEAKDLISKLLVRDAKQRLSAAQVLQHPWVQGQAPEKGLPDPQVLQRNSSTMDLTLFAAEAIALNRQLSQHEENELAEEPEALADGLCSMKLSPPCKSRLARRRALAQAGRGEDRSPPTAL

In general, IC50 refers to the concentration needed to halve the response being measured. For the compound `COC[C@H]1CCCN1c1cccc2oc(-c3cnc4ccc(OC[C@H]5CCC(=O)N5)nn34)cc12` [II-9, (5R)-5-{[(3-{4-[(2R)-2-(Methoxymethyl)pyrrolidin-1-yl]-1-benzofuran-2-yl}imidazo[1,2-b]pyridazin-6-yl)oxy]methyl}pyrrolidin-2-one], the values for the IC50 in experiment [1] (Table 1b) and in experiment [2] (Table 2b) were 0.8 nM and 0.6 nM, respectively.
For `COc1ccc2ncc(-c3cc4c(N5CCNC[C@H]5C)cccc4o3)n2n1` [II-44, 6-methoxy-3-{4-[(2R)-2-methylpiperazin-1-yl]-1-benzofuran-2-yl}imidazo[1,2-b]pyridazine], in that order: 2.9 nM and 3.8 nM.
For the compound `C[C@H](N)COc1ccc2ncc(-c3cc4c(N5CCCCC5)nccc4o3)n2n1` [III-9, (2S)-1-({3-[4-(Piperidin-1-yl)furo[3,2-c]pyridin-2-yl]imidazo[1,2-b]pyridazin-6-yl}oxy)propan-2-amine], the figures for the IC50 in experiment [1] (Table 1c) and in experiment [2] (Table 2c) were 10.6 nM and 20.4 nM, respectively.
For `CCN(CCOC(C)(C)C)c1nccc2oc(-c3cnc4ccc(O[C@H]5C[C@H](N)C5)nn34)cc12` [III-108, 2-{6-[(trans-3-Aminocyclobutyl)oxy]imidazo[1,2-b]pyridazin-3-yl}-N-(2-tert-butoxyethyl)-N-ethylfuro[3,2-c]pyridin-4-amine], in that order: 1.9 nM and 0.5 nM.
As for `CC(C)(C)COc1nccc2oc(-c3cnc4ccc(OC[C@H]5CCC(=O)N5)nn34)cc12` [IV-5, (5R)-5-[({3-[4-(2,2-Dimethylpropoxy)furo[3,2-c]pyridin-2-yl]imidazo[1,2-b]-pyridazin-6-yl}oxy)methyl]pyrrolidin-2-one], the IC50 amounted to 2 nM in experiment [1] (Table 1d) and 4 nM in experiment [2] (Table 2d).
With `CC(C)CC(=O)NCCOc1ccc2ncc(-c3cc4ccccc4o3)n2n1` [Example I-72, N-(2-{[3-(1-Benzofuran-2-yl)imidazo[1,2-b]-pyridazin-6-yl]oxy}ethyl)-3-methylbutanamide], the IC50 in experiment [1] (Table 1a) is 4.8 nM; in experiment [2] (Table 2a), 14.7 nM.
As to `COC[C@H]1CCCN1c1cccc2oc(-c3cnc4ccc(O[C@H]5C[C@H](N)C5)nn34)cc12` [II-11, trans-3-[(3-{4-[(2R)-2-(Methoxymethyl)pyrrolidin-1-yl]-1-benzofuran-2-yl}imidazo[1,2-b]pyridazin-6-yl)oxy]cyclobutanamine], the IC50 stood at 2.4 nM in experiment [1] (Table 1b) and 3.5 nM in experiment [2] (Table 2b).
For `C[C@H]1COCCN1c1cccc2oc(-c3cnc4ccc(OC[C@H]5CCC(=O)N5)nn34)cc12` [II-32, (5R)-5-{[(3-{4-[(3S)-3-methylmorpholin-4-yl]-1-benzofuran-2-yl}imidazo[1,2-b]pyridazin-6-yl)oxy]methyl}pyrrolidin-2-one], in that order: 4.4 nM and 8.1 nM.
As for `CC(C)(C)C(=O)N1CCC[C@H]1CCOc1ccc2ncc(-c3cc4cnccc4o3)n2n1` [IV-7, 1-[(2S)-2-(2-{[3-(Furo[3,2-c]pyridin-2-yl)imidazo[1,2-b]pyridazin-6-yl]-oxy}ethyl)pyrrolidin-1-yl]-2,2-dimethylpropan-1-one], the IC50 in experiment [1] (Table 1d) worked out at 1 nM; in experiment [2] (Table 2d) it was 4 nM.
For `O=C(c1ccsc1)N1CCC[C@H]1CCOc1ccc2ncc(-c3cc4ccccc4o3)n2n1` [Example I-57, [(2S)-2-(2-{[3-(1-Benzofuran-2-yl)imidazo[1,2-b]-pyridazin-6-yl]oxy}ethyl)pyrrolidin-1-yl](thiophen-3-yl)methanone], the IC50 was determined as 1.9 nM in experiment [1] (Table 1a) and 3.9 nM in experiment [2] (Table 2a).
As to `COC[C@H]1CCCN1c1cccc2oc(-c3cnc4ccc(OCCCS(C)(=O)=NC#N)nn34)cc12` (mixture of isomers) [II-25, [{3-[(3-{4-[2-(Methoxymethyl)pyrrolidin-1-yl]-1-benzofuran-2-yl}imidazo-[1,2-b]pyridazin-6-yl)oxy]propyl}(methyl)oxido-λ^6-sulfanylidene]cyanamide], the half-maximal inhibitory concentration (IC50) in experiment [1] (Table 1b) turned out to be 2.4 nM; in experiment [2] (Table 2b), 2.7 nM.
On to `O=C(C1CCC1)N1CCC[C@H]1CCOc1ccc2ncc(-c3cc4ccccc4o3)n2n1` [Example I-54, [(2S)-2-(2-{[3-(1-Benzofuran-2-yl)imidazo[1,2-b]-pyridazin-6-yl]oxy}ethyl)pyrrolidin-1-yl](cyclobutyl)methanone], for which the IC50 in experiment [1] (Table 1a) is 2 nM; in experiment [2] (Table 2a), 3.7 nM.
Turning to `C[C@H]1CN(c2nccc3oc(-c4cnc5ccc(OCCCS(C)(=O)=O)nn45)cc23)CCN1` [III-143, 3-{4-[(3S)-3-methylpiperazin-1-yl]furo[3,2-c]pyridin-2-yl}-6-[3-(methylsulfonyl)propoxy] imidazo[1,2-b]pyridazine], the results for the IC50 in experiment [1] (Table 1c) and in experiment [2] (Table 2c) were 3.7 nM and 10 nM, respectively.
For `CC1(C)CN(c2nccc3oc(-c4cnc5ccc(OC[C@H]6CCC(=O)N6)nn45)cc23)CCN1` [III-141, (5R)-5-[({3-[4-(3,3-dimethylpiperazin-1-yl)furo[3,2-c]pyridin-2-yl]imidazo[1,2-b]pyridazin-6-yl}oxy)methyl]pyrrolidin-2-one], in that order: 3.3 nM and 1.4 nM.
For `CN(C)C1CCN(c2nccc3oc(-c4cnc5ccc(OC[C@H]6CCC(=O)N6)nn45)cc23)CC1` [III-74, (5R)-5-{[(3-{4-[4-(Dimethylamino)piperidin-1-yl]furo[3,2-c]pyridin-2-yl}imidazo[1,2-b]pyridazin-6-yl)oxy]methyl}pyrrolidin-2-one], in that order: 1 nM and 1.5 nM.
`Cc1nocc1C(=O)N1CCC[C@H]1CCOc1ccc2ncc(-c3cc4ccccc4o3)n2n1` [Example I-52, [(2S)-2-(2-{[3-(1-Benzofuran-2-yl)imidazo[1,2-b]-pyridazin-6-yl]oxy}ethyl)pyrrolidin-1-yl](3-methyl-1,2-oxazol-4-yl)methanone]: the figures for the half-maximal inhibitory concentration (IC50) in experiment [1] (Table 1a) and in experiment [2] (Table 2a) were 1.7 nM and 3.4 nM, respectively.
In the same order, the values of `O=C(c1ccno1)N1CCC[C@H]1CCOc1ccc2ncc(-c3cc4ccccc4o3)n2n1` [Example I-47, [(2S)-2-(2-{[3-(1-Benzofuran-2-yl)imidazo[1,2-b]-pyridazin-6-yl]oxy}ethyl)pyrrolidin-1-yl](1,2-oxazol-5-yl)methanone] are 1.6 nM and 2.2 nM.
Regarding `COC[C@@H]1CCCN1c1nccc2oc(-c3cnc4ccc(OC[C@H]5CCC(=O)N5)nn34)cc12` [III-83, (5R)-5-{[(3-{4-[(2S)-2-(Methoxymethyl)pyrrolidin-1-yl]furo[3,2-c]pyridin-2-yl}imidazo[1,2-b]pyridazin-6-yl)oxy]methyl}pyrrolidin-2-one], the IC50 in experiment [1] (Table 1c) came out at 11.6 nM; in experiment [2] (Table 2c) it was 19.1 nM.
For `N[C@H]1C[C@H](Oc2ccc3ncc(-c4cc5c(N6CCN(c7ccccc7)CC6)nccc5o4)n3n2)C1` [III-106, trans-3-({3-[4-(4-Phenylpiperazin-1-yl)furo[3,2-c]pyridin-2-yl]imidazo[1,2-b]pyridazin-6-yl}oxy)cyclobutanamine], in that order: 10.2 nM and 9.2 nM.
Consider `C[C@@H]1CN(c2nccc3oc(-c4cnc5ccc(OCCCS(C)(=O)=O)nn45)cc23)C[C@H](C)O1` [III-53, 3-{4-[(2R,6S)-2,6-Dimethylmorpholin-4-yl]furo[3,2-c]pyridin-2-yl}-6-[3-(methyl-sulfonyl)propoxy]imidazo[1,2-b]pyridazine], for which the figures for the concentration for half-maximal inhibition (IC50) in experiment [1] (Table 1c) and in experiment [2] (Table 2c) were 8.7 nM and 26.7 nM, respectively.
For the compound `CN(CCCO)c1nccc2oc(-c3cnc4ccc(OCCCS(C)(=O)=O)nn34)cc12` [III-54, 3-[Methyl(2-{6-[3-(methylsulfonyl)propoxy]imidazo[1,2-b]pyridazin-3-yl}furo[3,2-c]pyridin-4-yl)amino]propan-1-ol], the figures for the IC50 in experiment [1] (Table 1c) and in experiment [2] (Table 2c) were 2.8 nM and 6.2 nM, respectively.
For `COc1ccc2oc(-c3cnc4ccc(OC[C@@H]5CCC(=O)N5)nn34)cc2c1` [Example I-13, (5S)-5-({[3-(5-methoxy-1-benzofuran-2-yl)imidazo[1,2-b]pyridazin-6-yl]oxy}methyl)pyrrolidin-2-one], the concentration for half-maximal inhibition (IC50) was determined as 3.7 nM in experiment [1] (Table 1a) and 10.7 nM in experiment [2] (Table 2a).
`C[C@H]1COCCN1c1cccc2oc(-c3cnc4ccc(OC[C@@H]5CCC(=O)N5)nn34)cc12` [II-33, (5S)-5-{[(3-{4-[(3S)-3-methylmorpholin-4-yl]-1-benzofuran-2-yl}imidazo[1,2-b]pyridazin-6-yl)oxy]methyl}pyrrolidin-2-one]: the IC50 in experiment [1] (Table 1b) turned out to be 16.3 nM; in experiment [2] (Table 2b) it was 24.4 nM.
For `CC1(C)CN(c2cccc3oc(-c4cnc5ccc(OCC(F)(F)F)nn45)cc23)CCN1` [II-54, 3-[4-(3,3-dimethylpiperazin-1-yl)-1-benzofuran-2-yl]-6-(2,2,2-trifluoroethoxy)im-idazo[1,2-b]pyridazine], in that order: 2.3 nM and 2.4 nM.
As to `CCC(C)C(=O)NCCOc1ccc2ncc(-c3cc4ccccc4o3)n2n1` (stereo not shown) [Example I-73, N-(2-{[3-(1-Benzofuran-2-yl)imidazo[1,2-b]-pyridazin-6-yl]oxy}ethyl)-2-methylbutanamide], the IC50 stood at 5.6 nM in experiment [1] (Table 1a) and 16.5 nM in experiment [2] (Table 2a).
As for `O=C(c1ccccn1)N1CCC[C@H]1CCOc1ccc2ncc(-c3cc4ccccc4o3)n2n1` [Example I-62, [(2S)-2-(2-{[3-(1-Benzofuran-2-yl)imidazo[1,2-b]-pyridazin-6-yl]oxy}ethyl)pyrrolidin-1-yl](pyridin-2-yl)methanone], the 50% inhibitory concentration (IC50) worked out at 3.5 nM in experiment [1] (Table 1a) and 6.8 nM in experiment [2] (Table 2a).
